Patent publication US6855730B2, “3-methylidenyl-2-indolinone modulators of protein kinase” (Sugen, Inc., priority 1998, dated 2005)
pIC50: −log10 of the molar value.

How the values were obtained:
Format in all cases: cell-based
[1] = tested on: SKOV3 cells; experiment: SKOV3 growth assay (2% FBS); conditions: Homo sapiens, SK-OV-3, read-out: SKOV3 growth (2% FBS) IC50
[2] = tested on: A431 cells; experiment: A431 growth assay (2% FBS); conditions: Homo sapiens, A-431, read-out: A431 growth (2% FBS) IC50
[3] = biological target: T1, 3T3 cell line genetically engineered to express human EGF-R (Homo sapiens, UniProt P00533); experiment: EGF-induced BrdU incorporation assay; conditions: read-out: BrdU EGF driven IC50
T1 construct: expressed in transfected cells; host or cells: 3T3
Description: The cellular/catalytic assays described herein are performed in an ELISA format. The general procedure is as follows: a compound is introduced to cells expressing the test kinase, either naturally or recombinantly, for a selected period of time after which, if the test kinase is a receptor, a ligand known to activate the receptor is added. The cells are lysed and the lysate is transferred to the wells of an ELISA plate previously coated with a specific antibody recognizing the substrate of the enzymatic phosphorylation reaction. Non-substrate components of the cell lysate are washed away and the amount of phosphorylation on the substrate is detected with an antibody specifically recognizing phosphotyrosine compared with control cells that were not contacted with a test compound. The cellular/biologic assays described herein measure the amount of DNA made in response to activation of a test kinase, which is a general measure of a proliferative response. The general procedure for this assay is as follows: a compound is introduced to cells expressing the test kinase, either naturally or recombinantly, for a selected period of time after which, if the test kinase is a receptor, a ligand known to activate the receptor is added. After incubation at least overnight, a DNA labeling reagent such as Bromodeoxyuridine (BrdU) or 3H-thymidine is added. The amount of labeled DNA is detected with either an anti-BrdU antibody or by measuring radioactivity and is compared to control cells not contacted with a test compound. […]
Protocol • (1) Cells are seeded at 8000 cells/well in 10% CS, 2mM Gin in DMEM, in a 96 well plate. Cells are incubated overnight at 37° C. in 5% CO2. • (2) After 24 hours, the cells are washed with PBS, and then are serum starved in serum free medium (0% CS DMEM with 0.1% BSA) for 24 hours. • (3) On day 3, ligand (EGF, 2 nM, prepared in DMEM with 0.1% BSA) and test compounds are added to the cells simultaneously. The negative control wells receive serum free DMEM with 0.1% BSA only, the positive control cells receive the ligand (EGF) but no test compound. Test compounds are prepared in serum free DMEM with ligand in a 96 well plate, and serially diluted for 7 test concentrations. • (4) After 20 hours of ligand activation, diluted BrdU labeling reagent (1:100 in DMEM, 0.1% BSA) is added and the cells are incubated with BrdU (final concentration=10 μM) for 1.5 hours. • (5) After incubation with labeling reagent, the medium is removed by decanting and tapping the inverted plate on a paper towel. FixDenat solution is added (50 μl/well) and the plates are incubated at room temperature for 45 minutes on a plate shaker. • (6) The FixDenat solution is thoroughly removed by decanting and tapping the inverted plate on a paper towel. Milk is added (5% dehydrated milk in PBS, 200 μl/well) as a blocking solution and the plate is incubated for 30 minutes at room temperature on a plate shaker. • (7) The blocking solution is removed by decanting and the wells are washed once with PBS. Anti-BrdU-POD solution (1:100 dilution in PBS, 1% BSA) is added (100 μ/well) and the plate is incubated for 90 minutes at room temperature on a plate shaker. • (8) The antibody conjugate is thoroughly removed by decanting and rinsing the wells 5 times with PBS, and the plate is dried by inverting and tapping on a paper towel. • (9) TMB substrate solution is added (100 μl/well) and incubated for 20 minutes at room temperature on a plate shaker until color development is sufficient for photometric detection. • (10) The absorbance of the samples are measured at 410 nm (in “dual wavelength” mode with a filter reading at 490 nm, as a reference wavelength) on a Dynatech ELISA plate reader.

SMILES	pIC50 [1]	pIC50 [2]	pIC50 [3]
CC1(C)CCc2cc(C=C3C(=O)Nc4ccc(Br)cc43)ccc2O1 (racemic) [Example 34, 5-Bromo-3-(2,2-dimethylchroman-6-ylmethylene)-1,3-dihydroindol-2-one]	5.12	5.36	4.96
COc1c(C(C)C)cc(/C=C2/C(=O)Nc3cc(NC(C)=O)ccc32)cc1C(C)C [Example 3, N-[3-(3,5-Diisopropyl-4-methoxybenzylidene)-2-oxo-2,3-dihydro-1H-indol-6-yl]-acetamide]	5.59	5.66	4.96
COc1c(C(C)C)cc(/C=C2/C(=O)Nc3cc(O)ccc32)cc1C(C)C [Example 4, 3-(3,5-Diisopropyl-4-methoxybenzylidene)-6-hydroxy-1,3-dihydroindol-2-one]	5.15	5.29	4.58
COC(=O)c1ccc2c(c1)/C(=C\c1cc(C(C)C)c(OC)c(C(C)C)c1)C(=O)N2 [Example 6, 3-(3,5-Diisopropyl-4-methoxybenzylidene)-2-oxo-2,3-dihydro-1H-indole-5-carboxylic acid methyl ester]	4.71	5.54	4.92
COc1ccc(/C=C2/C(=O)Nc3ccccc32)cc1C(C)C [Example 7, 3-(3-Isopropyl-4-methoxybenzylidene)-1,3-dihydroindol-2-one]	5.60	5.92	4.61
COc1cc(C)c(C=C2C(=O)Nc3ccccc32)cc1C(C)C [Example 8, 3-(5-Isopropyl-4-methoxy-2-methylbenzylidene)-1,3-dihydroindol-2-one]	6.02	6.02	< 4.30
COc1cc(C)c(C=C2C(=O)Nc3ccc(Cl)cc32)cc1C(C)C [Example 9, 5-Chloro-3-(5-isopropyl-4-methoxy-2-methylbenzylidene)-1,3-dihydroindol-2-one]	4.84	4.76	4.96
COc1ccc(/C=C2/C(=O)Nc3ccccc32)cc1C1CCCC1 [Example 10, 3-(3-Cyclopentyl-4-methoxybenzylidene)-1,3-dihydroindol-2-one]	4.95	5.07	4.54
COc1ccc(/C=C2/C(=O)Nc3ccc(Cl)cc32)cc1C1CCCCC1 [Example 51, 5-Chloro-3-(3-cyclohexyl-4-methoxybenzylidene)-1,3-dihydroindol-2-one]	4.84		
COc1c(C)cc(/C=C2/C(=O)Nc3ncccc32)cc1C [Example 56, 3-(4-Methoxy-3,5-dimethylbenzylidene)-1,3-dihydropyrrolo[2,3-b]pyridin-2-one]	< 4.70		

The remaining lines, values ahead:

pIC50 [1]	pIC50 [2]	pIC50 [3]	SMILES
< 4.60	4.96	4.52	COc1ccc(C=C2C(=O)Nc3cc(NC(C)=O)ccc32)cc1-c1cccc(NC(C)=O)c1 (mixture of isomers) [Example 63, N-[3-(3′-Acetylamino-6-methoxybiphenyl-3-ylmethylene)-2-oxo-2,3-dihydro-1H-indol-6-yl]-acetamide]
5.27	5.37	5.14	COc1c(C(C)C)cc(/C=C2/C(=O)Nc3ccc(C(C)=O)cc32)cc1C(C)C [Example 5, 5-Acetyl-3-(3,5-diisopropyl-4-methoxybenzylidene)-1,3dihydroindol-2-one]
4.99	5.17		CC(=O)Nc1ccc2c(c1)NC(=O)/C2=C\c1ccc2c(c1)CCC(C)(C)O2 [Example 33, N-[3-(2,2-Dimethylchroman-6-ylmethylene)-2-oxo-2,3-dihydro-1H-indol-6-yl]-acetamide]
	5.49	< 4.30	COc1cc(C)c(/C=C2/C(=O)Nc3ncccc32)cc1C(C)C [Example 45, 3-(5-Isopropyl-4-methoxy-2-methylbenzylidene)-1,3-dihydro-pyrrolo[2,3-b]pyridin-2-one]
		4.42	CC(=O)Nc1ccc2c(c1)NC(=O)/C2=C/c1ccc(OCCN2CCOCC2)c(-c2ccsc2)c1 [Example 50, N-{3-[4-(2-Morpholin-4-ylethoxy)-3-thiophen-3-ylbenzylidene]-2-oxo-2,3-dihydro-1H-indol-6-yl}-acetamide]
